Paper PMC8721105, “Novel Trypanocidal Inhibitors that Block Glycosome Biogenesis by Targeting PEX3–PEX19 Interaction” (Frontiers in Cell and Developmental Biology, 2021)
Entries after “also recorded” stand apart in the source; their conditions may differ. Where two headings read alike, the source gives them in different places.

Columns and labels:
[1] = ref ChemBridge, cited from earlier work; for Hacc (hydrogen bond acceptor) / Hdon (hydrogen bond donor): provided by the compound library supplier; for LogSw: supplier data
[2] = molecular target: TbPEX3–TbPEX19 interaction (Trypanosoma brucei brucei, UniProt Q383Q3); assay: AlphaScreen TbPEX3–TbPEX19 inhibitor screening and dose response; type: binding; settings: for Activity scores (robust z-scores) / Note (activity in the screen): primary AlphaScreen screen, 10 μM compound
Procedure: The above solutions were prepared in the reaction buffer [0.5% BSA v/v, 0.05% Tween 80 v/v, 0.2 mM DTT, PBS (pH7.4)] on the day of assay, diluting the compounds from 1 mM stocks in DMSO. Compounds were incubated with the proteins for 30 min at room temperature (RT). Five microliters of AlphaScreen Nickel-chelate acceptor beads (cat. no. 6760619C, PerkinElmer®) and AlphaScreen Glutathione donor beads (cat. no. 6765300, PerkinElmer®) were distributed to the mixture consecutively, with a 15-min interval. The complete 25-μl reaction solutions were incubated for 45 min at RT in the dark, and Alpha signals were captured with Cytation 5 plate reader (BioTek®) with the gain value set at 180. Schematic representation of the experiment setup of the high-throughput screening assays was prepared with BioRender.com.
Following initial hit selection, 10 μM of drugs were tested with GST-His (54 nM) and TbPEX19/TbPEX3 (5 nM) in smaller scale, and the level of signal was normalized (in %) and compared.

GST-TbPEX3d44 = assay: NMR saturation transfer difference (STD) with GST-TbPEX3; type: binding, Trypanosoma brucei; settings: for STD NMR effect with GST-TbPEX3: 10 μM protein, 300 µM ligand
Procedure: (§1) NMR saturation transfer difference (STD) experiments ([Mayer and Meyer, 1999]) were carried out on a Bruker AVIII 600-MHz spectrometer equipped with a cryoprobe and a SampleJet auto sampler. One-dimensional (1D) and STD spectra were acquired at 298 K. Compounds were dissolved in DMSO-d6 to a final concentration of 50 mM. STD experiments with GST-TbPEX3, TbPEX19-His, and GST-His were performed in PBS (pH 7.4), 10% D2O at a protein concentration of 10 μM, and a ligand concentration of 300 µM. Saturation time and interscan delay within STD experiments were set to 2 and 2.5 s, respectively.

[3] = tested on: T. brucei bloodstream form parasites; assay: Immunofluorescence microscopy of glycosomal aldolase localization; type: cell-based, Trypanosoma brucei; settings: 24 h treatment
Procedure: BSF 90-13 cells with genomically integrated PEX11-GFP were induced with 5 ng/ml of tetracycline and cultured overnight to initiate stable expression of PEX11-GFP. BSF427- and PEX11-GFP–expressing cells were treated for 24 h with 100 μM, 50 and 25 μM of each of the inhibitor, and DMSO was used as control. Compound-treated cultures with growth rates of about 50% compared to the DMSO control were harvested and stained for immunofluorescence and statistical analysis. Cells were fixed with 4% paraformaldehyde in PBS containing 250 mM sucrose for 20 min. Fixed cells were immobilized on adhesive slide (StarFrost®) pre-coated with 10% (v/v) of poly-L-lysine (Sigma-Aldrich®) in water after 1-h incubation at RT. Cells were permeabilized with 0.1% (v/v) Triton X-100 in PBS (pH7.4) for 15 min and blocked in buffer D [PBS supplemented with 1% (w/v) BSA and 0.25% (v/v) Tween 20] for 1 h. Anti-TbAldolase primary antibody was used at 1:500 dilution in buffer D for 1.5 h incubation. After five washes in PBS for 30 min, samples were treated with Goat anti-rabbit secondary antibody (1:200, v/v, Alexa Fluor™ 594). Samples were washed, dried, and mounted with Mowiol containing 4′,6-diamidino-2-phenylindole (DAPI). Immuno-stained cells were visualized with Zeiss Elyra microscopy. Pictures of stack 3 (of 5), rotation 1 (of 3), and phase 5 (of 5) were chosen for all control and compound-treated samples.

GST-His = molecular target: T1, GST-His (Schistosoma japonicum, UniProt P08515); assay: NMR saturation transfer difference (STD) with GST-His control; type: binding; settings: 10 μM protein, 300 µM ligand
T1 construct: made in house; host or cells: E. coli BL21(DE3)
Procedure: as §1

[4] = Cytotoxicity test on HepG2 cells; settings: human
T. brucei BSF427 = assay: T. brucei cell viability, resazurin-based assay; parameters: species or system Trypanosoma brucei
Procedure: BSF strain Lister 427 (termed hereafter as BSF427) and cell line 90-13 (stably expressing Tet repressor) were used in this study. BSF cells were grown in HMI-11 medium and maintained in logarithmic phase [below 2 × 10^6 cells/ml as described in [Kalel et al. (2019)]]. Genomically integrated stable transfections were performed with NotI-linearized plasmid constructs (pGN1-TbPEX11), which integrate into the spacer region of the ribosomal RNA repeat locus in the genome of cell line 90-13, and the clones were selected using blasticidin as described previously ([Kalel et al., 2015]). Expression of TbPEX11-GFP was confirmed with fluorescence microscopy following induction tests (data not shown) with a serial dilution of tetracycline, and minimal concentration (5 ng/ml) of tetracycline was used to achieve expression of the protein in more than 80% of the cells.
T. brucei BSF427 and compound dilutions were mixed in 1 : 1 (v/v) ratio to total volume of 200 μl, to reach final concentrations of 2 × 10^3 cells/ml and 0.19–100 μM of inhibitors, in quadruplicates in 96-well plates. Culture medium with no cells was used as negative control and cultures without presence of compounds as positive control representing normal rate of cell growth. Cells were grown at 37°C in an incubator with humidified air containing 5% CO2 for 3 days. Cell viabilities were measured quantitatively using resazurin dye, by adding 25-µl resazurin (0.1 mg/ml in HBSS) to each well, and the mixture incubated for 6 h in the incubator. Fluorescence emission was detected at 570 and 585 nm after excitation at 530 nm, and fluorescence at 570 nm was subtracted from 585 nm. The inhibition curves were fitted with normalized fluorescence signal (in percentage) against concentration of compounds in Log10 scale using GraphPad Prism, and best fit was used for EC50 estimation. Chemical structures were drawn with ChemDraw 20.0.

Sequence of TbPEX3–TbPEX19 interaction (Q383Q3 entry or part of it, other chains not shown): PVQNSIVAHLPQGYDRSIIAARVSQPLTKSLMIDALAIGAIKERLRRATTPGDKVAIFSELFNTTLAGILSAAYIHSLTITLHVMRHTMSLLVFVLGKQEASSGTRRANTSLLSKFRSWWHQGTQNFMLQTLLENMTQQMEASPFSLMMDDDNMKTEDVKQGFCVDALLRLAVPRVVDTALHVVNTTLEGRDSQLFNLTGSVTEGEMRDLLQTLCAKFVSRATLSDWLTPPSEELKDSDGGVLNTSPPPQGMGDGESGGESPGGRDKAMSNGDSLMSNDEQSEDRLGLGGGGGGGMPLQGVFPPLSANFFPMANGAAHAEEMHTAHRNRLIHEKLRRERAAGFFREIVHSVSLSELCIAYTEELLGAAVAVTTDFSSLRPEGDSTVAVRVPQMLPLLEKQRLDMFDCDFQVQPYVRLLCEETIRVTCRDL
T1 sequence (P08515 whole entry): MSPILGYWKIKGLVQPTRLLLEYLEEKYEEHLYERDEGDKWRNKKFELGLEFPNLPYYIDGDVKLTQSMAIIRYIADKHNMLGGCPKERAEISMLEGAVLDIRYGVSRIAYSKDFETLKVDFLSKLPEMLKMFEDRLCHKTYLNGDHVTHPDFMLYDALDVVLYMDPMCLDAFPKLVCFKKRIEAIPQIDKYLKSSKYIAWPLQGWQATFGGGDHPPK

| SMILES | Hacc (hydrogen bond acceptor) [1] | Hdon (hydrogen bond donor) [1] | LogSw [1] | Activity scores (robust z-scores) [2] | Note (activity in the screen) [2] | also measured |
| --- | --- | --- | --- | --- | --- | --- |
| O=C(Cc1cccs1)N1C[C@H](O)[C@@H](N2CCCCC2)C1 (racemic) [Compound 41601289, rac-(3S,4S)-4-piperidin-1-yl-1-(2-thienylacetyl)pyrrolidin-3-ol] | 3 | 1 | -2.24 | 0.3122 | Not active | – |
| c1ccc(-c2ncc(CNCCOc3cccc4cccnc34)cn2)nc1 [Compound 1, N-[(2-pyridin-2-ylpyrimidin-5-yl)methyl]-2-(quinolin-8-yloxy)ethanamine] | 6 | 1 | -2.69 | – | – | STD NMR effect with GST-TbPEX3 (GST-TbPEX3d44): significant STD effects; also recorded: strong STD signal; Target protein (NMR analysis) (GST-TbPEX3d44; protein assigned as target, GST-TbPEX3, TbPEX19-His and GST-His tested): TbPEX3; Aldolase labeling phenotype (in words) [3]: diffused pattern of aldolase labeling; STD NMR effect with GST-His control (GST-His): not to GST-His; also recorded: not with TbPEX19 or GST; IC50 [2]: 1 µM; EC50 ([4]; HepG2 cells, Human cell cytotoxicity (EC50), HepG2, serial dilutions of up to 200 µM): > 200 µM; EC50 (T. brucei BSF427; BSF427, 3 days of incubation, resazurin, read-out: T. brucei toxicity (EC50)): 33 µM; EC50 (T. brucei BSF427; Trypanosoma brucei, 72 h, BSF427, 3 days of incubation, resazurin, read-out: T. brucei toxicity (EC50)): 32.7 µM |
| CCNC(=O)c1cc(NC(=O)C2CCOCC2)ccc1Cl [Compound 5, N-{4-chloro-3-[(ethylamino)carbonyl]phenyl}tetrahydro-2H-pyran-4-carboxamide] | 3 | 2 | -2.58 | – | – | STD NMR effect with GST-TbPEX3 (GST-TbPEX3d44): show STD signal; also recorded: consistent STD effects; Inhibition of TbPEX3–PEX19 interaction (in words) [2]: did not inhibit |
| CC(CCNC(=O)N1CCC(Oc2ncccn2)CC1)n1ccnc1 (centres unmarked) [Compound 6, N-[3-(1H-imidazol-1-yl)butyl]-4-(pyrimidin-2-yloxy)piperidine-1-carboxamide] | 5 | 1 | -2.34 | – | – | STD NMR effect with GST-TbPEX3 (GST-TbPEX3d44): show STD signal; also recorded: consistent STD effects; Inhibition of TbPEX3–PEX19 interaction (in words) [2]: did not inhibit |
| COc1cc(CN2CCCN(Cc3ccccn3)CC2)cc2c1OCO2 [Compound 25282511, 1-[(7-methoxy-1,3-benzodioxol-5-yl)methyl]-4-(pyridin-2-ylmethyl)-1,4-diazepane] | 6 | 0 | -0.93 | – | Active, require characterization | – |
| CCN(Cc1nccn1C)Cc1nccn1-c1ccc(OC)cc1 [Compound 26410952, N-{[1-(4-methoxyphenyl)-1H-imidazol-2-yl]methyl}-N-[(1-methyl-1H-imidazol-2-yl)methyl]ethanamine] | 4 | 0 | -3.12 | – | Active, require characterization | – |
| CNC(=O)c1cccc(NC(=O)C2CCOC(C)(C)C2)c1C (centres unmarked) [Compound 31960442, 2,2-dimethyl-N-{2-methyl-3-[(methylamino)carbonyl]phenyl}tetrahydro-2H-pyran-4-carboxamide] | 3 | 2 | -2.90 | 0.2733 | Not active | – |
| Cc1cc(=O)n(CCN(Cc2ccccn2)CC2CCCO2)c(=O)[nH]1 (centres unmarked) [Compound 54483906, 6-methyl-3-{2-[(pyridin-2-ylmethyl)(tetrahydrofuran-2-ylmethyl)amino]ethyl}pyrimidine-2,4(1H,3H)-dione] | 5 | 1 | -1.32 | – | Active, require characterization | – |
| CC(C)c1cc(C2CCCN2C(=O)c2ccc(-c3nnn(C)n3)cc2)no1 (centres unmarked) [Compound 54866350, 5-(4-{[2-(5-isopropylisoxazol-3-yl)pyrrolidin-1-yl]carbonyl}phenyl)-2-methyl-2H-tetrazole] | 6 | 0 | -2.94 | 2.5166 | Not active | – |
| CC(=O)Nc1ccccc1NC(=O)CN(C)Cc1cnn(C)c1 [Compound 67602110, N~1~-[2-(acetylamino)phenyl]-N~2~-methyl-N~2~-[(1-methyl-1H-pyrazol-4-yl)methyl]glycinamide] | 4 | 2 | -2.21 | 0.7988 | Not active | – |
| COCCN(Cc1cn2ccc(C)cc2n1)Cc1nccs1 [Compound 79442734, (2-methoxyethyl)[(7-methylimidazo[1,2-a]pyridin-2-yl)methyl](1,3-thiazol-2-ylmethyl)amine] | 4 | 0 | -2.43 | – | Active, require characterization | – |
| COc1cccc(N2CCN(C(=O)c3cccc(-c4cn[nH]c4)c3)CC2)c1 [Compound 92838291, 1-(3-methoxyphenyl)-4-[3-(1H-pyrazol-4-yl)benzoyl]piperazine] | 3 | 1 | -3.20 | 1.4019 | Not active | – |
| CN[C@@H]1C[C@H](N)[C@@H](O)[C@H](O[C@H]2O[C@H](CO)[C@H](O)[C@@H]3O[C@@]4(O[C@@H]23)O[C@H]([C@H](N)CO)[C@H](O)[C@H](O)[C@H]4O)[C@H]1O [Hygromycin, reference compound] | – | – | – | – | – | EC50 [4]: 16.2 µM |
| Cc1ccc(C(=O)Nc2ccc(S(=O)(=O)O)c3cc(S(=O)(=O)O)cc(S(=O)(=O)O)c23)cc1NC(=O)c1cccc(NC(=O)Nc2cccc(C(=O)Nc3cc(C(=O)Nc4ccc(S(=O)(=O)O)c5cc(S(=O)(=O)O)cc(S(=O)(=O)O)c45)ccc3C)c2)c1 [suramin, reference compound] | – | – | – | – | – | EC50 (T. brucei BSF427; Trypanosoma brucei, 72 h, read-out: T. brucei EC50, BSF427, 3 days of incubation, resazurin, positive control): 0.037 µM; EC50 (T. brucei BSF427; read-out: T. brucei EC50, BSF427, 3 days of incubation, resazurin, positive control): 0.0371 µM |
